# According to publication PMC9486186 (Bioactive Materials, 2022):
# System: BCR-ABL(T315I) induced CML mice
# Assay: Survival of BCR-ABL
# Type: in vivo, mouse
# Conditions: BPTES 10 mg/kg monotherapy
smiles,measurement,value
O=C(Cc1ccccc1)Nc1nnc(CCSCCc2nnc(NC(=O)Cc3ccccc3)s2)s1 [BPTES],mice still alive on day 60 post BMT,3/9
